Assays:
LSD1 = target: T1, LSD1 (Homo sapiens, UniProt O60341); test: Lance Ultra LSD1 demethylase TR-FRET enzyme inhibition assay; type: biochemical; conditions: for LSD2/LSD1 selectivity (folds): ratio of LSD2 IC50 to LSD1 IC50; for IC50: recombinant human LSD1 (172–852 aa) 2 nM, Bio-H3K4me2 substrate, 1 h, TR-FRET, mean ± SD, n = 3
T1 construct: Recombinant human LSD1 (172–852 aa); by word order LSD1 from Sino Biological
Excerpt: (§1) These were utilized in both in vitro and in vivo assays. Iscove’s Modified Dulbecco’s Medium (IMDM), Roswell Park Memorial Institute (RPMI)-1640 medium, fetal bovine serum (FBS) and penicillin/streptomycin were purchased from Gibco (Grand Island, New Nork, United States). Recombinant human LSD1 (172–852 aa) and full-length LSD2 were obtained from Sino Biological Inc. and ActiveMotif.
(§2) The inhibitory effects of the tested compounds on LSD1 and LSD2 enzymes were methodically assessed using the Lance Ultra LSD1 Histone H3-Lysine 4 Demethylase Assay Kit from PerkinElmer, adhering to previously published methodologies ([Li et al., 2022]). In brief, the reaction was initiated by adding 4 μL of enzyme solution, with concentrations specified at 2 nM for LSD1 or 172 nM for LSD2, 4 μL of substrate solution [2.5 μM Bio-H3K4me2 ([…])], and 2 μL of tested compound to a Tris buffer (50 mM Tris-HCl, 50 mM NaCl, 0.01% Tween 20, 1 mM DTT, 10 μM FAD, 10% glycerol, pH 9.0) at room temperature and incubated for 1 h. Following the incubation, 5 μL of a detection mixture, comprising an Eu-labeled H3K4me0 antibody and ULight Streptavidin, was added to the reaction. The fluorescence intensity was then measured employing TR-FRET mode with excitation and emission wavelengths set at 320 nm and 665 nm, respectively, utilizing the Envision (PerkinElmer) system. Each experiment was performed in triplicate.

LSD2 = target: T2, LSD2 (Homo sapiens, UniProt Q8NB78); test: Lance Ultra demethylase TR-FRET enzyme inhibition assay, LSD2; type: biochemical; conditions: full-length LSD2 172 nM, Bio-H3K4me2 substrate, 1 h, mean ± SD, n = 3
T2 construct: full-length LSD2; by word order LSD2 from ActiveMotif
T2 sequence (Q8NB78 1-822): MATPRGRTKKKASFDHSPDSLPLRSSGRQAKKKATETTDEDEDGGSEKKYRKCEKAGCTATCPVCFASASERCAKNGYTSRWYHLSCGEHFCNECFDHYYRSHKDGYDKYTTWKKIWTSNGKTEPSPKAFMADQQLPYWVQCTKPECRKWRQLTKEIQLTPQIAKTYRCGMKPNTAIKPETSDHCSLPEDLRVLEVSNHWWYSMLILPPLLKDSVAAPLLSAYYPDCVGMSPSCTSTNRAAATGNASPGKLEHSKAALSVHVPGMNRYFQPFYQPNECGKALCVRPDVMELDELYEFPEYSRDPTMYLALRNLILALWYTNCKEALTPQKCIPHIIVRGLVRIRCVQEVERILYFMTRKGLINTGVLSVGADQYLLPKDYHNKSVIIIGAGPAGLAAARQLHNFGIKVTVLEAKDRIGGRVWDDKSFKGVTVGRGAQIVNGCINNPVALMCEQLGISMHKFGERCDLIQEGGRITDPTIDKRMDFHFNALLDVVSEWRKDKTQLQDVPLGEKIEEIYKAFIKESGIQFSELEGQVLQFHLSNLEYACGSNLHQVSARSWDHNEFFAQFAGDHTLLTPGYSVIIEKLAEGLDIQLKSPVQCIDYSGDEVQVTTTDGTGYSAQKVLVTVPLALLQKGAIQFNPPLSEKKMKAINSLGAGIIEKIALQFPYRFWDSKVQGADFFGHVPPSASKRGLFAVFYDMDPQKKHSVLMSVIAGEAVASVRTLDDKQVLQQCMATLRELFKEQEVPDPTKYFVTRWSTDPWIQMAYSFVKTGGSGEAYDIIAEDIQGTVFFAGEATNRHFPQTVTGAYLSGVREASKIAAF
Excerpt: as §1, §2

MV-4-11 cells = test: MTS cell proliferation assay; type: cell-based; conditions: Homo sapiens, MV4-11, LSD1-addicted MV-4-11 leukemia cells, 72 h
Description: (§3) The myeloid leukemia cell lines MV-4-11, MOLT-4, MOLM-16, HL-60, and the human B lymphocyte cell line […] were purchased from the American Type Culture Collection (ATCC, Manassas, VA, United States). The myeloid leukemia cell line HAL-01 was obtained from the Deutsche Sammlung von Mikroorganismen und Zellkulturen GmbH (DSMZ, Braunschweig, Germany). All cells were cultured in IMDM or RPMI -1640 medium supplemented with 10% FBS, 100 U/mL penicillin, and 100 μg/mL streptomycin. The cells were maintained in a humidified incubator with an atmosphere of 5% CO2 at 37°C.
(§4) The in vitro anti-proliferative activity of the compounds was determined using the CellTiter 96® AQueous NonRadioactive Cell Proliferation Assay Kit (Promega, Madison, United States) as previously described ([Ji et al., 2017]). In brief, 5–10 × 10^3 cells and 180 μL of medium were first seeded into each well of a 96-well plate. Subsequently, the cells were exposed to either 0.2% Dimethyl sulfoxide (DMSO, Aladdin Reagent, Shanghai, China) or a serial dilution of the compounds, prepared from a 10 mM stock solution in DMSO, with the final concentration of DMSO being 0.2% for 72 h. 20 μL of MTS reagent was added to each well, and the culture was incubated in the dark at 37°C for 4 h. Finally, the optical density (OD) was then recorded at 490 nm and 690 nm using a microplate reader from Molecular Devices. The proliferation inhibition rate was calculated according to the following formula: inhibition ratio = (OD of DMSO treated wells - OD of compound treated wells)/(OD of DMSO treated wells - OD of blank wells) × 100%. The IC50 values of the compounds inhibiting cell proliferation were calculated using GraphPad Prism 10 (GraphPad Software Inc., San Diego, CA).

RPMI-8226 cells = test: MTS cell proliferation assay; type: cell-based; conditions: Homo sapiens, LSD1-non-sensitive RPMI-8226 cells, 72 h
Description: as §3, §4

Row | Structure (SMILES) | LSD2/LSD1 selectivity (folds) (LSD1) | IC50 (LSD1) [nM] | IC50 (LSD2) [nM] | IC50 (MV-4-11 cells) [µM] | IC50 (RPMI-8226 cells) [µM]
1 | O=C(O)c1ccc(CN2CCC(CN[C@@H]3C[C@H]3c3ccccc3)CC2)cc1 [GSK2879552, reference compound] | 4 | 24.5 ± 2.26 | 104 ± 5.75 | 1.17 ± 0.28 | 21.3 ± 2.69
2 | O=S(=O)(c1cccc(-c2ccccc2)c1)N1CCc2cc(C3CC3NCC3CCNCC3)ccc21 (stereo not drawn) [LTM-2] | 215 | 10.2 ± 2.71 | 2200 | 0.74 ± 0.06 | > 100
3 | O=S(=O)(c1ccc(CO)c(Cl)c1)N1CCc2cc(C3CC3NCC3CCNCC3)ccc21 (stereo not drawn) [LTM-3] | 668 | 4.57 ± 0.32 | 3050 | 0.32 ± 0.04 | > 100
4 | C=CCc1cccc(S(=O)(=O)N2CCc3cc(C4CC4NCC4CCNCC4)ccc32)c1 (stereo not drawn) [LTM-4] | 97 | 8.92 ± 0.57 | 861 ± 26.7 | 0.63 ± 0.05 | > 100
5 | O=S(=O)(c1cccc(CC2CC2)c1)N1CCc2cc(C3CC3NCC3CCNCC3)ccc21 (stereo not drawn) [LTM-5] | 92 | 7.31 ± 0.46 | 674 ± 21.5 | 0.51 ± 0.03 | > 100
6 | O=S(=O)(c1cccc(CC2CCCCC2)c1)N1CCc2cc(C3CC3NCC3CCNCC3)ccc21 (stereo not drawn) [LTM-6] | >302 | 16.5 ± 2.39 | > 5000 | 0.98 ± 0.07 | > 100

Reference: PMC11903733 (Frontiers in Pharmacology, 2025)
